Measurements as given in PubChem BioAssay (NCI).
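Where inhibition never reached the appropriate level, the endpoint shown equals the highest concentration tested. Otherwise, values were interpolated linearly from a five-concentration, 48-hour dose response in 96-well plates. TGI denotes the concentration required for complete inhibition of growth.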

Experiments:
Test in all cases: NCI tumour cell line growth inhibition, 48 h
786-0 renal = test system: 786-0 renal
A498 renal = test system: A498 renal
A549 NSCLC = test system: A549 NSCLC
ACHN renal = test system: ACHN renal
BT-549 breast = test system: BT-549 breast
CAKI-1 renal = test system: CAKI-1 renal
CCRF-CEM leukemia = test system: CCRF-CEM leukemia
COLO 205 colon = test system: COLO 205 colon
DU-145 prostate = test system: DU-145 prostate
EKVX NSCLC = test system: EKVX NSCLC
HCC-2998 colon = test system: HCC-2998 colon
HCT-116 colon = test system: HCT-116 colon
HCT-15 colon = test system: HCT-15 colon
HL-60(TB) leukemia = test system: HL-60(TB) leukemia
HOP-62 NSCLC = test system: HOP-62 NSCLC
HOP-92 NSCLC = test system: HOP-92 NSCLC
HS 578T breast = test system: HS 578T breast
HT29 colon = test system: HT29 colon
IGROV1 ovarian = test system: IGROV1 ovarian
K-562 leukemia = test system: K-562 leukemia
KM12 colon = test system: KM12 colon
LOX IMVI melanoma = test system: LOX IMVI melanoma
M14 melanoma = test system: M14 melanoma
MCF7 breast = test system: MCF7 breast
MDA-MB-231 breast = test system: MDA-MB-231 breast
MDA-MB-435 = test system: MDA-MB-435
MDA-N = test system: MDA-N
MOLT-4 leukemia = test system: MOLT-4 leukemia
NCI-H23 lung = test system: NCI-H23 lung
NCI-H460 lung = test system: NCI-H460 lung
NCI-H522 lung = test system: NCI-H522 lung
NCI/ADR-RES ovarian = test system: NCI/ADR-RES ovarian
OVCAR-3 ovarian = test system: OVCAR-3 ovarian
OVCAR-5 ovarian = test system: OVCAR-5 ovarian
OVCAR-8 ovarian = test system: OVCAR-8 ovarian
PC-3 prostate = test system: PC-3 prostate
RPMI-8226 leukemia = test system: RPMI-8226 leukemia
RXF 393 renal = test system: RXF 393 renal
SF-268 CNS = test system: SF-268 CNS
SF-295 CNS = test system: SF-295 CNS
SF-539 CNS = test system: SF-539 CNS
SK-MEL-2 melanoma = test system: SK-MEL-2 melanoma
SK-MEL-28 melanoma = test system: SK-MEL-28 melanoma
SK-MEL-5 melanoma = test system: SK-MEL-5 melanoma
SK-OV-3 ovarian = test system: SK-OV-3 ovarian
SN12C renal = test system: SN12C renal
SNB-19 CNS = test system: SNB-19 CNS
SNB-75 CNS = test system: SNB-75 CNS
SR leukemia = test system: SR leukemia
SW-620 colon = test system: SW-620 colon
T-47D breast = test system: T-47D breast
TK-10 renal = test system: TK-10 renal
U251 CNS = test system: U251 CNS
UACC-257 melanoma = test system: UACC-257 melanoma
UACC-62 melanoma = test system: UACC-62 melanoma
UO-31 renal = test system: UO-31 renal
NCI-H226 lung = test system: NCI-H226 lung
OVCAR-4 ovarian = test system: OVCAR-4 ovarian

O=C(O)Cc1cc(F)ccc1C(=O)O
TGI (786-0 renal): > 100 µM
TGI (A498 renal): > 100 µM
TGI (A549 NSCLC): > 100 µM
TGI (ACHN renal): > 100 µM
TGI (BT-549 breast): > 100 µM
TGI (CAKI-1 renal): > 100 µM
TGI (CCRF-CEM leukemia): > 100 µM
TGI (COLO 205 colon): > 100 µM
TGI (DU-145 prostate): > 100 µM
TGI (EKVX NSCLC): > 100 µM
TGI (HCC-2998 colon): > 100 µM
TGI (HCT-116 colon): > 100 µM
TGI (HCT-15 colon): > 100 µM
TGI (HL-60(TB) leukemia): > 100 µM
TGI (HOP-62 NSCLC): > 100 µM
TGI (HOP-92 NSCLC): > 100 µM
TGI (HS 578T breast): > 100 µM
TGI (HT29 colon): > 100 µM
TGI (IGROV1 ovarian): 75.9 µM
TGI (K-562 leukemia): > 100 µM
TGI (KM12 colon): > 100 µM
TGI (LOX IMVI melanoma): > 100 µM
TGI (M14 melanoma): > 100 µM
TGI (MCF7 breast): > 100 µM
TGI (MDA-MB-231 breast): > 100 µM
TGI (MDA-MB-435): > 100 µM
TGI (MDA-N): > 100 µM
TGI (MOLT-4 leukemia): > 100 µM
TGI (NCI-H23 lung): > 100 µM
TGI (NCI-H460 lung): > 100 µM
TGI (NCI-H522 lung): > 100 µM
TGI (NCI/ADR-RES ovarian): > 100 µM
TGI (OVCAR-3 ovarian): > 100 µM
TGI (OVCAR-5 ovarian): > 100 µM
TGI (OVCAR-8 ovarian): > 100 µM
TGI (PC-3 prostate): > 100 µM
TGI (RPMI-8226 leukemia): > 100 µM
TGI (RXF 393 renal): > 100 µM
TGI (SF-268 CNS): > 100 µM
TGI (SF-295 CNS): > 100 µM
TGI (SF-539 CNS): > 100 µM
TGI (SK-MEL-2 melanoma): > 100 µM
TGI (SK-MEL-28 melanoma): > 100 µM
TGI (SK-MEL-5 melanoma): > 100 µM
TGI (SK-OV-3 ovarian): > 100 µM
TGI (SN12C renal): > 100 µM
TGI (SNB-19 CNS): > 100 µM
TGI (SNB-75 CNS): > 100 µM
TGI (SR leukemia): > 100 µM
TGI (SW-620 colon): > 100 µM
TGI (T-47D breast): > 100 µM
TGI (TK-10 renal): > 100 µM
TGI (U251 CNS): > 100 µM
TGI (UACC-257 melanoma): > 100 µM
TGI (UACC-62 melanoma): > 100 µM
TGI (UO-31 renal): > 100 µM

CN1CCN(CCCNN)CC1
TGI (786-0 renal): > 100 µM
TGI (A498 renal): > 100 µM
TGI (A549 NSCLC): > 100 µM
TGI (ACHN renal): > 100 µM
TGI (BT-549 breast): > 100 µM
TGI (CAKI-1 renal): > 100 µM
TGI (COLO 205 colon): > 100 µM
TGI (DU-145 prostate): > 100 µM
TGI (EKVX NSCLC): > 100 µM
TGI (HCC-2998 colon): > 100 µM
TGI (HCT-116 colon): > 100 µM
TGI (HCT-15 colon): > 100 µM
TGI (HL-60(TB) leukemia): > 100 µM
TGI (HOP-62 NSCLC): > 100 µM
TGI (HOP-92 NSCLC): > 100 µM
TGI (HS 578T breast): > 100 µM
TGI (HT29 colon): > 100 µM
TGI (IGROV1 ovarian): > 100 µM
TGI (K-562 leukemia): 37.5 µM
TGI (KM12 colon): > 100 µM
TGI (LOX IMVI melanoma): > 100 µM
TGI (M14 melanoma): > 100 µM
TGI (MCF7 breast): > 100 µM
TGI (MDA-MB-231 breast): > 100 µM
TGI (MDA-MB-435): > 100 µM
TGI (MDA-N): > 100 µM
TGI (MOLT-4 leukemia): 1.44 µM
TGI (NCI-H226 lung): > 100 µM
TGI (NCI-H23 lung): > 100 µM
TGI (NCI-H460 lung): > 100 µM
TGI (NCI-H522 lung): > 100 µM
TGI (NCI/ADR-RES ovarian): > 100 µM
TGI (OVCAR-3 ovarian): > 100 µM
TGI (OVCAR-4 ovarian): > 100 µM
TGI (OVCAR-5 ovarian): > 100 µM
TGI (OVCAR-8 ovarian): > 100 µM
TGI (PC-3 prostate): > 100 µM
TGI (RPMI-8226 leukemia): > 100 µM
TGI (RXF 393 renal): > 100 µM
TGI (SF-268 CNS): > 100 µM
TGI (SF-295 CNS): > 100 µM
TGI (SF-539 CNS): > 100 µM
TGI (SK-MEL-2 melanoma): > 100 µM
TGI (SK-MEL-28 melanoma): > 100 µM
TGI (SK-MEL-5 melanoma): > 100 µM
TGI (SK-OV-3 ovarian): > 100 µM
TGI (SN12C renal): > 100 µM
TGI (SNB-19 CNS): > 100 µM
TGI (SNB-75 CNS): > 100 µM
TGI (SR leukemia): > 100 µM
TGI (SW-620 colon): > 100 µM
TGI (T-47D breast): > 100 µM
TGI (TK-10 renal): > 100 µM
TGI (U251 CNS): > 100 µM
TGI (UACC-257 melanoma): > 100 µM
TGI (UACC-62 melanoma): > 100 µM
TGI (UO-31 renal): > 100 µM

C#CCCOC(=O)CC1=C(C)/C(=C/c2ccc(S(C)=O)cc2)c2ccc(F)cc21 (stereo not drawn)
TGI (786-0 renal): 44.7 µM
TGI (A498 renal): 30.4 µM
TGI (ACHN renal): 44.3 µM
TGI (BT-549 breast): 30.5 µM
TGI (CAKI-1 renal): 65.4 µM
TGI (CCRF-CEM leukemia): 35 µM
TGI (COLO 205 colon): 32.9 µM
TGI (DU-145 prostate): 31.4 µM
TGI (EKVX NSCLC): 71.9 µM
TGI (HCC-2998 colon): 22.3 µM
TGI (HCT-116 colon): 32.3 µM
TGI (HCT-15 colon): 27.1 µM
TGI (HL-60(TB) leukemia): 20.7 µM
TGI (HOP-62 NSCLC): > 100 µM
TGI (HOP-92 NSCLC): 26.1 µM
TGI (HS 578T breast): 40.4 µM
TGI (IGROV1 ovarian): 83.1 µM
TGI (K-562 leukemia): 35.3 µM
TGI (KM12 colon): 27.3 µM
TGI (LOX IMVI melanoma): 33.1 µM
TGI (M14 melanoma): 33.1 µM
TGI (MCF7 breast): 37.8 µM
TGI (MDA-MB-231 breast): 26 µM
TGI (MDA-MB-435): 17.4 µM
TGI (MDA-N): 21 µM
TGI (MOLT-4 leukemia): 44.1 µM
TGI (NCI-H226 lung): 43.3 µM
TGI (NCI-H23 lung): 68.9 µM
TGI (NCI-H460 lung): 35.4 µM
TGI (NCI-H522 lung): 47 µM
TGI (NCI/ADR-RES ovarian): 36 µM
TGI (OVCAR-3 ovarian): 33.8 µM
TGI (OVCAR-4 ovarian): 43 µM
TGI (OVCAR-5 ovarian): > 100 µM
TGI (OVCAR-8 ovarian): 42.8 µM
TGI (PC-3 prostate): 28.7 µM
TGI (RPMI-8226 leukemia): 32.4 µM
TGI (RXF 393 renal): 84.7 µM
TGI (SF-268 CNS): 50 µM
TGI (SF-295 CNS): 29.4 µM
TGI (SF-539 CNS): 30.5 µM
TGI (SK-MEL-2 melanoma): 30.5 µM
TGI (SK-MEL-5 melanoma): 24.7 µM
TGI (SK-OV-3 ovarian): 84.3 µM
TGI (SN12C renal): 35.6 µM
TGI (SNB-19 CNS): 29.6 µM
TGI (SNB-75 CNS): 44.8 µM
TGI (SR leukemia): 22.1 µM
TGI (SW-620 colon): 29.9 µM
TGI (T-47D breast): 53.7 µM
TGI (TK-10 renal): 83.3 µM
TGI (U251 CNS): 29.4 µM
TGI (UACC-257 melanoma): 29.7 µM
TGI (UACC-62 melanoma): 27.4 µM
TGI (UO-31 renal): 33.6 µM
